{"source": "ChEMBL document CHEMBL3102825", "about": "“Exploration of a series of 5-arylidene-2-thioxoimidazolidin-4-ones as inhibitors of the cytolytic protein perforin” (J Med Chem, 2013)"}
{"experiment": "Aqueous solubility of the compound", "format": "physicochemical", "units": {"solubility": "µg/mL"}}
{"smiles": "O=C1NC(=S)[N-]/C1=C/c1ccc(-c2ccc3c(c2)CN(CCO)C3=O)s1.[Na+]", "solubility": 3430}
{"smiles": "CC1c2cc(-c3ccc(/C=C4/[N-]C(=S)NC4=O)s3)ccc2C(=O)N1C.[Na+]", "note": "(stereo not given)", "solubility": 1410}
{"smiles": "O=C1[N-]/C(=C/c2ccc(-c3ccc4c(c3)CNC4=O)s2)C(=O)N1.[Na+]", "solubility": 136}
{"smiles": "O=C1NC(=S)[N-]/C1=C/c1ccc(-c2ccc3c(c2)CN(CCCO)C3=O)s1.[Na+]", "solubility": 10200}
{"smiles": "O=C1NC(=S)[N-]/C1=C/c1ccc(-c2ccc3c(c2)COC3=O)s1.[Na+]", "solubility": 43}
{"smiles": "CCOC(=O)N1Cc2cc(-c3ccc(/C=C4/[N-]C(=S)NC4=O)s3)ccc2C1=O.[Na+]", "solubility": 397}
{"smiles": "O=C1NC(=S)[N-]/C1=C/c1ccc(-c2ccc3c(c2)C(=O)NCC3)s1.[Na+]", "solubility": 37.2}
{"smiles": "O=C1NC(=S)[N-]/C1=C/c1ccc(-c2ccc3c(c2)CCNC3=O)s1.[Na+]", "solubility": 1570}
{"smiles": "CN1Cc2cc(-c3ccc(/C=C4/[N-]C(=S)NC4=O)s3)ccc2C1=O.[Na+]", "solubility": 151}
{"smiles": "O=C1NC(=S)[N-]/C1=C/c1ccc(-c2ccc3c(c2)CNC3=O)s1.[Na+]", "solubility": 140}
